Measurements reported in US20240246918A1, “COMPOUNDS AND COMPOSITIONS AS EIF4E INHIBITORS AND THE USES THEREOF” (Ribometrix, Inc., priority 2022, published 2024).
Read-outs that look alike come from different tables or passages of the source.

Tests used:
[1] = system: COLO 205 colorectal tumor cells; assay: Tumor cell viability inhibition assay (CellTiter-Glo 2.0, 72 hours); format: cell-based; details: COLO 205 cell viability
Procedure, shortened: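 IC50 derived by 4-parameter fitting after normalizing luminescence to DMSO and max-inhibition wells. Compounds tested as 11 concentrations in 4-fold steps on COLO 205 cells seeded at 1500 per well in RPMI-1640/10% FBS; ATP content measured with CellTiter-Glo 2.0 after 72 h.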

[2] = system: cyclin D1 protein levels in COLO 205 cells; assay: Cyclin D1 cellular inhibition assay (HTRF, 6 hours); format: cell-based; details: Homo sapiens, COLO 205, 6 h, 6 hours of compound treatment, Cyclin D1 protein levels by HTRF, read-out: COLO 205 6 h Cyclin D1 TR-FRET IC50
Procedure: The effect of compound treatment on cyclin D1 protein levels in COLO 205 cells was assessed, as follows. Test compound plates were prepared with a Tecan D300e Digital Dispenser as 11-point concentration-response curves with a final DMSO concentration of 1%. COLO 205 (ATCC, CCL-222) colorectal tumor cells were seeded to assay-ready plates in RPMI-1640 medium supplemented with 10% FBS at 20,000 cells in a volume of 6 microliters per well. After 6 hours of compound treatment, cells were lysed and Cyclin D1 protein levels were assessed by an HTRF assay (PerkinElmer #64CYCD1ITPEG), according to the manufacturer's protocol. Time-resolved fluorescence was measured using a Clariostar Plus microplate reader (BMG Labtech) or equivalent. After normalization to the average of DMSO control and maximum inhibition control wells, concentration-response data were plotted and standard 4-parameter curve fitting (GraphPad Prism v9.4.1) was utilized to determine IC50 values.

human eIF4E protein = molecular target: T1, human eIF4E protein (Homo sapiens, UniProt P06730); assay: Biochemical competitive binding assay (TR-FRET competition, EDA-m7GDP-ATTO-647N probe); details: read-out: hEIF4E TR-FRET IC50
T1 construct: purchased Novus NBP-45314
T1 sequence (P06730 whole entry): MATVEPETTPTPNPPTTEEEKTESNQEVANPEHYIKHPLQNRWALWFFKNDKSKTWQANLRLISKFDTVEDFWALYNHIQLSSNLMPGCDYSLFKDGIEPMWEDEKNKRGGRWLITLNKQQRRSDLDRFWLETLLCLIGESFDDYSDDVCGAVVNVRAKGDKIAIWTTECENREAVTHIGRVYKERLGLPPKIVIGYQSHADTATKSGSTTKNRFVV
Procedure, shortened: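 IC50 values come from 4-parameter fits of the normalized 665/620 nm TR-FRET ratio. Compound was first incubated 15 min with 4 nM recombinant His-eIF4E bound to 2.5 nM Eu-anti-His antibody, then 15 min with 5 nM m7GDP-ATTO-647N tracer, in pH 7.5 HEPES buffer with 100 mM KCl, Tween-20 and BSA.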

[3] = system: cap-dependent translation in Flp-In-293 reporter cells; assay: Cellular cap-dependent translation inhibition assay (dual luciferase assay, DLA; Fluc/Rluc ratio, 24 hours); format: cell-based
[4] = Homo sapiens, Flp-In-293, 24 h, dual luciferase assay, Flp-In-293 reporter cells, 24 hours, Fluc/Rluc ratio, read-out: DLA 205 IC50
[5] = dual luciferase assay, Flp-In-293 reporter cells, 24 hours, Fluc/Rluc ratio, read-out: DLA 205 IC50

Compound | IC50 ([1]; Homo sapiens, COLO 205, 72 h) [µM] | IC50 (human eIF4E protein) [nM] | IC50 [3, 4] [nM] | also measured
Cc1cc(-c2cc(Cl)ccc2OCCn2c(C)nc3c(c2=O)CC(N2C[C@@H]4CC(F)(F)C[C@@H]4C2)CC3)c2scc(C(=O)O)c2n1 (stereo partly drawn) [Compound 175] | < 5 | < 100 |  | IC50 [2]: < 5 µM
Cc1cc(-c2cc(Cl)ccc2OCCn2c(C)nc3c(c2=O)CC(N(C2CCC2)C2CC(F)(F)C2)CC3)c2scc(C(=O)NS(C)(=O)=O)c2n1 (stereo not drawn) [Compound 98] | < 5 | < 100 | < 1000 | 
Cc1cc(-c2cc(Cl)ccc2OCCn2c(C)nc3c(c2=O)CC(N(C)Cc2ccncc2)CC3)c2sccc2n1 (stereo not drawn) [Compound 75] | 5 to 20 | 500 to 5000 | > 5000 | 
Cc1cc(-c2cc(Cl)ccc2OCCn2c(C)nc3c(c2=O)CC(N2CCC(F)(F)CC2)CC3)c2scc(C(=O)O)c2n1 (stereo not drawn) [Compound 32] | < 5 | < 100 | < 1000 | 
Cc1cc(-c2cc(Cl)ccc2OCCn2c(C)nc3c(c2=O)CC(N(C)C)CC3)c2ccc(C(=O)NS(C)(=O)=O)n2n1 (stereo not drawn) [Compound 59, 4-[5-chloranyl-2-[2-[6-[di(methyl)amino]-2-methyl-4-oxidanylidene-5,6,7,8-tetrahydroquinazolin-3-yl]ethoxy]phenyl]-2-methyl-N-methylsulfonyl-pyrrolo[1,2-b]pyridazine-7-carboxamide] | < 5 | < 100 | < 1000 | 
CO[C@H]1CCN([C@@H]2CCc3nc(C)n(CCOc4ccc(Cl)cc4-c4cc(C)nc5c(C(=O)O)csc45)c(=O)c3C2)C1 (single isomer, unassigned) [Compound 48] | < 5 | < 100 | < 1000 | 
COc1cc(CN(C)C2CCc3nc(C)n(CCOc4ccc(Cl)cc4-c4cc(C)nc5c(C(=O)O)csc45)c(=O)c3C2)ccn1 (stereo not drawn) [Compound 248] | < 5 | < 100 | < 1000 | 
Cc1cc(-c2cc(Cl)ccc2OCCn2c(C)nc3c(c2=O)CC(N(C)C2CCCC2)CC3)c2scc(C(=O)O)c2n1 (stereo not drawn) [Compound 80] | < 5 | < 100 | < 1000 | 
Cc1cc(-c2cc(Cl)ccc2OCCn2c(C)nc3c(c2=O)CC(N(C)C(=O)C2CCN(C)CC2)CC3)c2scc(C(=O)NS(C)(=O)=O)c2n1 (stereo not drawn) [Compound 84] | > 20 | < 100 | > 5000 | 
COCCN(C)C1CCc2nc(C)n(CCOc3ccc(Cl)cc3-c3cc(C)nc4c(C(=O)O)csc34)c(=O)c2C1 (stereo not drawn) [Compound 33] | < 5 | < 100 | < 1000 | 
CNC1CCc2nc(C)n(CCOc3ccc(Cl)cc3-c3cccc(C(=O)O)c3)c(=O)c2C1 (stereo not drawn) [Compound 2] |  | < 100 |  | IC50 ([1]; Homo sapiens): < 5 µM; IC50 ([3]; Homo sapiens, Flp-In-293, 24 h, read-out: DLA 205 IC50, dual luciferase assay, Flp-In-293 reporter cells, 24 hours, Fluc/Rluc ratio): > 5000 nM
Cc1cc(-c2cc(Cl)ccc2OCCn2c(C)nc3c(c2=O)CC(N(C)Cc2cc[nH]c(=O)c2)CC3)c2scc(C(=O)O)c2n1 (single isomer, unassigned) [Compound 247] |  | < 100 |  | IC50 [1]: > 20 µM; IC50 [3, 5]: > 5000 nM
Cc1cc(-c2cc(Cl)ccc2OCCn2c(C)nc3c(c2=O)CC(N2CCC(F)(F)C2)CC3)c2scc(C(=O)O)c2n1 (stereo not drawn) [Compound 53] | < 5 | < 100 | < 1000 | 
COC1CCc2nc(C)n(CCOc3ccc(Cl)cc3-c3cc(C)nc4c(C(=O)O)csc34)c(=O)c2C1 (single isomer, unassigned) [Compound 5] |  | 100 to 500 |  | IC50 [1]: 5 to 20 µM; IC50 ([3]; read-out: DLA 205 IC50, dual luciferase assay, Flp-In-293 reporter cells, 24 hours, Fluc/Rluc ratio): > 5000 nM
Cc1cc(-c2cc(Cl)ccc2OCCn2c(C)nc3c(c2=O)CC(N2CCC(F)(F)C2)CC3)c2scc(C(=O)NS(C)(=O)=O)c2n1 (stereo not drawn) [Compound 60] | < 5 | < 100 | < 1000 | 
Cc1cc(-c2cc(Cl)ccc2OCCn2c(C)nc3c(c2=O)CC(N(C)C2CCCCC2)CC3)c2scc(C(=O)O)c2n1 (stereo not drawn) [Compound 69] | < 5 | < 100 | < 1000 | 
Cc1nc2c(c(=O)n1CC#Cc1ccc(Cl)cc1-c1ccnc3c(C(=O)NS(C)(=O)=O)csc13)CC(N(C)C)CC2 (single isomer, unassigned) [Compound 266] | > 20 | 500 to 5000 | > 5000 | 
Cc1cc(-c2cc(Cl)ccc2OCCn2c(C)nc3c(c2=O)CC(N(C)S(C)(=O)=O)CC3)c2scc(C(=O)O)c2n1 (stereo not drawn) [Compound 37] | 5 to 20 | < 100 | > 5000 | 
Cc1cc(-c2cc(Cl)ccc2OCCn2c(C)nc3c(c2=O)CC(N2CCCCC2)CC3)c2scc(C(=O)O)c2n1 (single isomer, unassigned) [Compound 249] | 5 to 20 | < 100 | < 1000 | 
Cc1cc(-c2cc(Cl)ccc2OCCn2c(C)nc3c(c2=O)CC(N(C)C(=O)C2CCN(C)CC2)CC3)c2scc(C(=O)O)c2n1 (stereo not drawn) [Compound 74] | > 20 | < 100 | > 5000 | 
Cc1nc2c(c(=O)n1CCOc1ccc(Cl)cc1-c1ccnn3c(C(=O)O)ccc13)CC(N(C)C)CC2 (stereo not drawn) [Compound 30, 4-[5-chloranyl-2-[2-[6-[di(methyl)amino]-2-methyl-4-oxidanylidene-5,6,7,8-tetrahydroquinazolin-3-yl]ethoxy]phenyl]pyrrolo[1,2-b]pyridazine-7-carboxylic acid] | > 20 | < 100 | 1000 to 5000 | 
Cc1cc(-c2cc(Cl)ccc2OCCn2c(C)nc3c(c2=O)CC(N2CCCCC2)CC3)c2scc(C(=O)O)c2n1 (single isomer, unassigned) [Compound 250] |  | < 100 |  | IC50 [1]: < 5 µM; IC50 [3, 5]: < 1000 nM

Continued, in another order:

IC50 ([1]; Homo sapiens, COLO 205, 72 h) [µM] | IC50 (human eIF4E protein) [nM] | Compound | IC50 [3, 4] [nM] | also measured
< 5 | < 100 | Cc1cc(-c2cc(Cl)ccc2OCCn2c(C)nc3c(c2=O)CC(N2CCN(CC(F)(F)F)CC2)CC3)c2scc(C(=O)O)c2n1 (stereo not drawn) [Compound 278] | < 1000 | 
< 5 | < 100 | Cc1cc(-c2cc(Cl)ccc2OCCn2c(C)nc3c(c2=O)CC(N(C2CCC2)C2CC2)CC3)c2scc(C(=O)NS(C)(=O)=O)c2n1 (stereo not drawn) [Compound 317] | < 1000 | 
 | < 100 | Cc1nc2c(c(=O)n1CC#Cc1ccc(Cl)cc1-c1ccnc3c(C(=O)NS(C)(=O)=O)csc13)CC(N1CCCCC1)CC2 (single isomer, unassigned) [Compound 316] |  | IC50 [1]: 5 to 20 µM; IC50 [3, 5]: 1000 to 5000 nM
> 20 | 500 to 5000 | Cc1cc(-c2cc(Cl)ccc2OCCn2c(C)nc3c(c2=O)CC(N(C)C2CC2)CC3)c2c(n1)c(C(=O)O)cn2C (stereo not drawn) [Compound 277] | > 5000 | 
 | < 100 | Cc1nc2c(c(=O)n1CC#Cc1ccc(Cl)cc1-c1ccnc3c(C(=O)NS(C)(=O)=O)csc13)CC(N(C)Cc1ccncc1)CC2 (single isomer, unassigned) [Compound 314] |  | IC50 [1]: 5 to 20 µM; IC50 [3, 5]: 1000 to 5000 nM
< 5 | < 100 | Cc1cc(-c2cc(Cl)ccc2OCCn2c(C)nc3c(c2=O)CC(N(C2CC2)C2CC2)CC3)c2scc(C(=O)NS(C)(=O)=O)c2n1 (single isomer, unassigned) [Compound 291] | < 1000 | 
5 to 20 | 100 to 500 | Cc1nc2c(c(=O)n1CC#Cc1ccc(Cl)cc1-c1ccnc3c(C(=O)NS(C)(=O)=O)csc13)CC(N1CC(F)(F)C1)CC2 (single isomer, unassigned) [Compound 331] |  | IC50 [3, 5]: 1000 to 5000 nM
 | 100 to 500 | Cc1cc(-c2cc(Cl)ccc2OCCn2c(C)nc3c(c2=O)CC(N(CC(F)(F)F)C2CC2)CC3)c2scc(C(=O)NS(C)(=O)=O)c2n1 (single isomer, unassigned) [Compound 309] |  | IC50 [1]: 5 to 20 µM; IC50 [3, 5]: 1000 to 5000 nM
< 5 | < 100 | Cc1nc2c(c(=O)n1CC#Cc1ccc(Cl)cc1-c1ccnc3c(C(=O)O)csc13)C[C@@H](N1CC[C@@H](F)C1)CC2 (single isomer, unassigned) [Compound 327] | < 1000 | 
< 5 | < 100 | Cc1cc(-c2cc(Cl)ccc2OCCn2c(C)nc3c(c2=O)C[C@H](N2CCC[C@H](F)C2)CC3)c2scc(C(=O)O)c2n1 (single isomer, unassigned) [Compound 283] | < 1000 | 
 | 100 to 500 | Cc1cc(-c2cc(Cl)ccc2OCCn2c(C)nc3c(c2=O)CC(N(C)C2(c4ccc(F)cc4)CC2)CC3)c2scc(C(=O)O)c2n1 (single isomer, unassigned) [Compound 281] |  | IC50 [1]: 5 to 20 µM; IC50 [3, 5]: 1000 to 5000 nM
